In article PMC6821791, “Phase I Trial of Pyragrel, a Novel Thromboxane Synthetase Inhibitor, to Evaluate the Safety, Tolerability, and Pharmacokinetics in Healthy Volunteers” (Frontiers in Pharmacology, 2019):

Assays:
[1] = Part IV 3×3 crossover study, plasma pharmacokinetics; type: in vivo, human
Protocol: (§1) Pyragrel administration regimens are as follows: In the single-escalating-dose study (Part I), a total of 52 subjects are enrolled to receive one of three treatments (pyragrel, ozagrel, or placebo, diluted in 500 Ml normal saline) as a 3-h i.v. infusion. Six dose levels of pyragrel (30, 60,120, 180, 240, 300 mg) were intravenously infused to healthy subjects. Of the 12 subjects each at the first three dose groups (30, 60, and 120 mg), 8 received pyragrel, 2 received ozagrel (80 mg), and 2 received placebo. Eight subjects were assigned as 4/2/2 for pyragrel, ozagrel, and placebo at the 180 mg level. Only four subjects were enrolled at the 240- and 300-mg group each; all received pyragrel. […] In the saline-volume-changed study (Part II), the safety and pharmacokinetics of pyragrel were assessed by decreasing the volume of dilution saline. Four subjects received a single 3 h infusion of pyragrel 240 mg diluted in 250 ml saline instead of the 500 ml used in Part I. Blood samples were collected at multiple time points before and after the initiation of the infusion in Part I and Part II; 15 blood samples were predetermined as follows: before drug administration (time 0), 0.5, 1, 2, 3 (4 samples collected during infusion), 3.25, 3.5, 4, 5, 7, 9, 11, 15, 24, and 48 h (10 samples collected post infusion) after the initiation of the infusion. In the multiple-dose study (Part III), 12 subjects received a single 3 h infusion of 180 mg pyragrel (diluted in 250 ml saline) on Day 1 and Day 6 and twice 3 h infusion of 180 mg pyragrel from Day 2 to 5; 14 blood samples were collected on Day 1 and Day 6 before drug administration (0 h), 0.5, 1, 2, 3, 3.25, 3.5, 4, 5, 7, 9, 11, 15, 24 h after the initiation of the infusion; moreover, 5 ml cubital vein blood was collected each time right before pyragrel infusion on Day 2 to Day 5. In the 3×3 crossover study (Part IV), 12 subjects were randomized to receive each of the three dosing groups (60, 120, or 240 mg) of pyragrel (diluted with 250 ml saline, 3 h infusion) per period, with a 7-day washout period between doses. Sixteen blood samples were collected as follows: before drug administration (0 h), 0.17, 0.35, 0.5, 1, 2, 3, 3.25, 3.5, 4, 5, 7, 9, 11, 15, and 24 h after the initiation of the infusion at each period. In the prolonged infusion study (Part V), four subjects received continuous 24 h infusion of pyragrel 360 mg (diluted in 600 ml saline); 19 blood samples were collected as follows: before drug administration (0 h), 0.25, 0.5, 1, 2, 4, 8, 12, 16, 20 (nine samples collected during administration), 24.25, 24.5, 25, 26, 28, 30, 32, 36, and 48 h after the initiation of the infusion (details shown in Figure 1 ). In all five cohorts, 5 ml of cubital vein blood was collected with a sodium heparin anticoagulant tube and centrifuged at 3000 r·min^-1. Each plasma sample was divided into two aliquots and stored at −20°C until further bioanalysis. […] Briefly, 10 µl of the extract drug from […] was injected onto a Zorbax EcLipse XDB C18 column (2.1 mm × 150 mm, 5 μm) (Agilent, USA) using isocratic elution with a mobile phase composed of methanol, water, and formic acid (65:35:0.1, v/v/v). Determination of the analytes was achieved by tandem-mass spectrometry with positive electrospray ionization.
(§2) Pharmacokinetic parameters were calculated using the noncompartmental model (NCA module), WinNonlin 6.1 (Pharsight Corporation, Mountain View, CA, USA). Statistical analysis was performed with SPSS 18. The actual dosing and sampling times were utilized in the analysis. Pharmacokinetic parameters were summarized by dose regimens using descriptive statistics, including n, mean, and the coefficient of variation (CV). For Tmax, only n, min, median, and max were reported.
In Part IV, a multivariate ANOVA model containing subjects, treatments (60, 120, or 240 mg), periods, and gender was used to analyze log-transformed Cmax and AUC. Tmax was analyzed using various related Friedman nonparametric tests.

[2] = Part V prolonged 24 h infusion study, plasma pharmacokinetics; type: in vivo, human; conditions: for AUCINF / AUClast / Cl / Cmax / Tmax / Vz / t1/2: continuous i.v. infusion of pyragrel 360 mg within 24 h, plasma, n=4, mean ± SD
Protocol: as §1, §2

[3] = Part IV urinary excretion of pyragrel and four metabolites; type: in vivo, human; conditions: for Total cumulative urine excreted amounts over 24 h: 12 subjects; for Accumulative urinary excretion rate: over 24 h; for Cumulative urinary drug recovery (normalized to pyragrel) within 24 h: n=12, Mean ± SD
Protocol: Urine samples were collected after the initiation of pyragrel infusion as follows in Part IV: 0–3 (3 h infusion period), 3–7, 7–11, 11–15, and 15–24 h after pyragrel administration during each period. […] Production of 11-dehydro-thrombxane B2 (11-D-HTXB2) in urine sample was detected by ELISA method.

[4] = Acute toxicity study in mice; type: in vivo
[5] = test system: human umbilical vein endothelial cells (HUVEC); conditions: in vitro; cited from earlier work
[6] = dog, in vivo; cited from earlier work
[7] = pyragrel 60 mg, 3 h infusion, plasma, n=12, mean ± SD
[8] = pyragrel 120 mg, 3 h infusion, plasma, n=12, mean ± SD
[9] = pyragrel 240 mg, 3 h infusion, plasma, n=12, mean ± SD
[10] = single 3 h infusion of pyragrel 60 mg
[11] = single 3 h infusion of pyragrel 240 mg
[12] = metabolite in plasma after pyragrel 60 mg, n=12
[13] = metabolite in plasma after pyragrel 120 mg, n=12
[14] = metabolite in plasma after pyragrel 240 mg, n=12

Structure (SMILES): COc1cc(C=CC(=O)[O-])ccc1OCc1nc(C)c(C)nc1C.[Na+] [Pyragrel, sodium pyragrel]
- AUCINF [1, 7]: 2,003.8 ± 318.7 h*µg·L^-1
- AUClast [1, 7]: 1,990.8 ± 317.9 h*µg·L^-1
- Cl [1, 7]: 30.65 ± 4.91 L/h
- Cmax [1, 7]: 641.2 ± 107.8 µg/L
- Tmax [1, 7]: 2.75 ± 0.45 h
- Vz [1, 7]: 184.5 ± 80.37 L
- t1/2 [1, 7]: 4.28 ± 1.84 h
- AUCINF [1, 8]: 4,325.2 ± 541.5 h*µg·L^-1
- AUClast [1, 8]: 4,317.4 ± 541.1 h*µg·L^-1
- Cl [1, 8]: 28.18 ± 3.83 L/h
- Cmax [1, 8]: 1505.6 ± 178.7 µg/L
- Tmax [1, 8]: 2.58 ± 0.51 h
- Vz [1, 8]: 197.6 ± 77.76 L
- t1/2 [1, 8]: 4.82 ± 1.63 h
- AUCINF [1, 9]: 9,292.8 ± 1,468.0 h*µg·L^-1
- AUClast [1, 9]: 9,279.1 ± 1,466.3 h*µg·L^-1
- Cl [1, 9]: 26.45 ± 4.34 L/h
- Cmax [1, 9]: 3165.7 ± 426.4 µg/L
- Tmax [1, 9]: 2.92 ± 0.29 h
- Vz [1, 9]: 194.3 ± 72.28 L
- t1/2 [1, 9]: 5.06 ± 1.58 h
- Plasma concentration remaining, fraction of Cmax ([2]; at 4 h post-infusion): 1/20
- AUCINF [2]: 14,995 ± 2,494 h*µg·L^-1
- AUClast [2]: 14,984 ± 2,497 h*µg·L^-1
- Cl [2]: 24.47 ± 3.75 L/h
- Cmax [2]: 861.7 ± 155.1 µg/L
- Tmax [2]: 14.00 ± 7.66 h
- Vz [2]: 260.2 ± 144.4 L
- t1/2 [2]: 7.05 ± 3.74 h
- AUCINF ([2]; listed as pyragrel): 14,994.57 ± 2,493.9 h*µg·L^-1
- AUClast ([2]; listed as pyragrel): 14,984.40 ± 2,496.64 h*µg·L^-1
- Cmax ([2]; listed as pyragrel): 861.67 ± 155.05 µg/L
- Urinary excretion, share of the total drug amount ([3]; Part IV, three dose groups, pyragrel plus metabolites): more than 70%
- Total cumulative urine excreted amounts over 24 h [3, 10]: 44.80 mg
- Accumulative urinary excretion rate [3, 10]: 74.67%
- Total cumulative urine excreted amounts over 24 h ([3]; single 3 h infusion of pyragrel 120 mg): 85.07 mg
- Total cumulative urine excreted amounts over 24 h [3, 11]: 175.83 mg
- Accumulative urinary excretion rate [3, 11]: 73.26%
- Cumulative urinary drug recovery (normalized to pyragrel) within 24 h ([3]; single dose of pyragrel 60 mg): 0.94 ± 0.30%
- Cumulative urinary drug recovery (normalized to pyragrel) within 24 h ([3]; single dose of pyragrel 120 mg): 0.67 ± 0.14%
- Cumulative urinary drug recovery (normalized to pyragrel) within 24 h ([3]; single dose of pyragrel 240 mg): 0.79 ± 0.28%
- LD50 [4]: 929.7 mg/kg
- Effect against inflammatory induced HUVEC injury [5]: significant protective effects
- Maximum safe dose [6]: > 12.5 mg/kg/day

Structure (SMILES): COc1cc(CCC(=O)O)ccc1OCc1nc(C)c(C)nc1C [BBS]
- AUCINF [1, 12]: 1882.93 ± 534.37 µg·h/L
- AUClast [1, 12]: 1821.9 ± 496.75 µg·h/L
- Cl [1, 12]: 34.77 ± 11.33 L/h
- Cmax [1, 12]: 373.16 ± 101.22 µg/L
- Tmax [1, 12]: 3.29 ± 0.18 h
- Vz [1, 12]: 261.4 ± 115.98 L
- t1/2 [1, 12]: 5.12 ± 1.17 h
- AUCINF [1, 13]: 4036.27 ± 1186.62 µg·h/L
- AUClast [1, 13]: 3969.83 ± 1184.3 µg·h/L
- Cl [1, 13]: 32.54 ± 10.86 L/h
- Cmax [1, 13]: 837.84 ± 228.5 µg/L
- Tmax [1, 13]: 3.27 ± 0.17 h
- Vz [1, 13]: 250.94 ± 149.96 L
- t1/2 [1, 13]: 5.08 ± 1.38 h
- AUCINF [1, 14]: 9572.13 ± 3748.80 µg·h/L
- AUClast [1, 14]: 9440.71 ± 3717.86 µg·h/L
- Cl [1, 14]: 30.04 ± 16.36 L/h
- Cmax [1, 14]: 2041.56 ± 684.12 µg/L
- Tmax [1, 14]: 3.25 ± 0.18 h
- Vz [1, 14]: 212.93 ± 126.27 L
- AUCINF [2]: 11,533 ± 3,946 h*µg·L^-1
- AUClast [2]: 11,500 ± 3,952 h*µg·L^-1
- Cl [2]: 34.11 ± 11.36 L/h
- Cmax [2]: 566.1 ± 195.0 µg/L
- Tmax [2]: 18.06 ± 4.13 h
- Vz [2]: 234.4 ± 89.53 L
- t1/2 [2]: 4.74 ± 0.65 h
- Cumulative urinary drug recovery (normalized to pyragrel) within 24 h ([3]; single dose of pyragrel 60 mg): 3.90 ± 2.11%
- Cumulative urinary drug recovery (normalized to pyragrel) within 24 h ([3]; single dose of pyragrel 120 mg): 1.93 ± 0.85%
- Cumulative urinary drug recovery (normalized to pyragrel) within 24 h ([3]; single dose of pyragrel 240 mg): 2.75 ± 0.97%
- LD50 [4]: > 929.7 mg/kg
